Patent publication US11685723B2, “Antibacterial agents: O-alkyl-deuterated pyronins” (Rutgers, the State University of New Jersey, priority 2018, dated 2023)
Values after ≈ are worked out from the molar mass of the structure shown. Like-named read-outs stand apart in the source and are kept apart here.

Key:
[1] = Metabolic stability, human liver microsomes; assay type: in vitro ADME; details: human liver microsomes (male) 1 mg/ml, 1 mM NADPH, pH 7.4, 37° C.
Experimental: (§1) Test compounds were incubated with mouse liver microsomes (CD-1; male and female pooled; 1 mg/ml) or human liver microsomes (male; 1 mg/ml) in 50 mM potassium phosphate, pH 7.4, and 1 mM NADPH at 37° C. Aliquots were removed at 0, 15, 30, 60, 90 and 120 min, and amounts of test compounds remaining were determined by LC-MS/MS. Half lives (t0.5) were calculated as t0.5=−0.693/k, where k is the slope of the linear regression of the natural logarithms of percentages of test compounds remaining vs. time.

[2] = Metabolic stability, mouse liver microsomes; assay type: in vitro ADME; details: CD-1 mouse liver microsomes 1 mg/ml, 1 mM NADPH, pH 7.4, 37° C.
Experimental: as §1

[3] = target: E. coli RNA polymerase σ70 holoenzyme (Escherichia coli, UniProt P0A8T7+P0A8V2); assay: Fluorescence-detected inhibition of bacterial RNA polymerase; assay type: biochemical
Chain of E. coli RNA polymerase σ70 holoenzyme (P0A8V2 whole entry, the tested form may be a part): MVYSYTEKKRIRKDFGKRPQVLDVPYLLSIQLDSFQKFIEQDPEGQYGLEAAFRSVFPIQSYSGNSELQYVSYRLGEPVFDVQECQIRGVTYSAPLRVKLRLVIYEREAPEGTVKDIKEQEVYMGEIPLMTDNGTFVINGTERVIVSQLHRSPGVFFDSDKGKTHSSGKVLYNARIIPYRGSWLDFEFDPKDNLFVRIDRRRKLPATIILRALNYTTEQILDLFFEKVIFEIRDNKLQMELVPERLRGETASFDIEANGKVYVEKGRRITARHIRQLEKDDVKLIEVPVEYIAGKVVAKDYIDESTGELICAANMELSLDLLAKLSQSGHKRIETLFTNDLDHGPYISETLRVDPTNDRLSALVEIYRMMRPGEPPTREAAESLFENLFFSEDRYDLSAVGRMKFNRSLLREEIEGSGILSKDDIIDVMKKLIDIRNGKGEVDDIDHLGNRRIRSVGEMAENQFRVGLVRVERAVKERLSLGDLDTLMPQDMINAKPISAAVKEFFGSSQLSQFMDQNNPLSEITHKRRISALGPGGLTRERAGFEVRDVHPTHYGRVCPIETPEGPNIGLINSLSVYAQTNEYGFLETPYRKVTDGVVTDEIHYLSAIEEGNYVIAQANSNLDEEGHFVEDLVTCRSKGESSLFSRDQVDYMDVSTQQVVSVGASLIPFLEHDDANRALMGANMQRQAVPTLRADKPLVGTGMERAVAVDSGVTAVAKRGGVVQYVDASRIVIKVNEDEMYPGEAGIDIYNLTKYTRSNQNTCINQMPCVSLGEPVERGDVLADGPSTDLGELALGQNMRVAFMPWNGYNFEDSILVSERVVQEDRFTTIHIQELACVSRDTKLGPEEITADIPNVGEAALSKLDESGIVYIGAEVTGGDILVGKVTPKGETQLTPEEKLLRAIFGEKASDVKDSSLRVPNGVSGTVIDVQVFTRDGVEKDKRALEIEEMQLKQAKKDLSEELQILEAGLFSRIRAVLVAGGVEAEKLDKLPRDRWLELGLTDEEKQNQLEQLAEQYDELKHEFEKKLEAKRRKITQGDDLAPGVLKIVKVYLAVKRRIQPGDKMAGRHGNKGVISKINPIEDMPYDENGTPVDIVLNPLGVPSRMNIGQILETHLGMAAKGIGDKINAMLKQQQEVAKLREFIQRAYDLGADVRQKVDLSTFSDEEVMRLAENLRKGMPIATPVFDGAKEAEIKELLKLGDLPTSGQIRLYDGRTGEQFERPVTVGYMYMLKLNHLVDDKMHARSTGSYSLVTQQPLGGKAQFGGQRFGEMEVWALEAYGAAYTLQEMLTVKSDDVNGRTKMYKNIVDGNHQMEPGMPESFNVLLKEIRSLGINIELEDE
Chain of E. coli RNA polymerase σ70 holoenzyme (P0A8T7 whole entry, the tested form may be a part): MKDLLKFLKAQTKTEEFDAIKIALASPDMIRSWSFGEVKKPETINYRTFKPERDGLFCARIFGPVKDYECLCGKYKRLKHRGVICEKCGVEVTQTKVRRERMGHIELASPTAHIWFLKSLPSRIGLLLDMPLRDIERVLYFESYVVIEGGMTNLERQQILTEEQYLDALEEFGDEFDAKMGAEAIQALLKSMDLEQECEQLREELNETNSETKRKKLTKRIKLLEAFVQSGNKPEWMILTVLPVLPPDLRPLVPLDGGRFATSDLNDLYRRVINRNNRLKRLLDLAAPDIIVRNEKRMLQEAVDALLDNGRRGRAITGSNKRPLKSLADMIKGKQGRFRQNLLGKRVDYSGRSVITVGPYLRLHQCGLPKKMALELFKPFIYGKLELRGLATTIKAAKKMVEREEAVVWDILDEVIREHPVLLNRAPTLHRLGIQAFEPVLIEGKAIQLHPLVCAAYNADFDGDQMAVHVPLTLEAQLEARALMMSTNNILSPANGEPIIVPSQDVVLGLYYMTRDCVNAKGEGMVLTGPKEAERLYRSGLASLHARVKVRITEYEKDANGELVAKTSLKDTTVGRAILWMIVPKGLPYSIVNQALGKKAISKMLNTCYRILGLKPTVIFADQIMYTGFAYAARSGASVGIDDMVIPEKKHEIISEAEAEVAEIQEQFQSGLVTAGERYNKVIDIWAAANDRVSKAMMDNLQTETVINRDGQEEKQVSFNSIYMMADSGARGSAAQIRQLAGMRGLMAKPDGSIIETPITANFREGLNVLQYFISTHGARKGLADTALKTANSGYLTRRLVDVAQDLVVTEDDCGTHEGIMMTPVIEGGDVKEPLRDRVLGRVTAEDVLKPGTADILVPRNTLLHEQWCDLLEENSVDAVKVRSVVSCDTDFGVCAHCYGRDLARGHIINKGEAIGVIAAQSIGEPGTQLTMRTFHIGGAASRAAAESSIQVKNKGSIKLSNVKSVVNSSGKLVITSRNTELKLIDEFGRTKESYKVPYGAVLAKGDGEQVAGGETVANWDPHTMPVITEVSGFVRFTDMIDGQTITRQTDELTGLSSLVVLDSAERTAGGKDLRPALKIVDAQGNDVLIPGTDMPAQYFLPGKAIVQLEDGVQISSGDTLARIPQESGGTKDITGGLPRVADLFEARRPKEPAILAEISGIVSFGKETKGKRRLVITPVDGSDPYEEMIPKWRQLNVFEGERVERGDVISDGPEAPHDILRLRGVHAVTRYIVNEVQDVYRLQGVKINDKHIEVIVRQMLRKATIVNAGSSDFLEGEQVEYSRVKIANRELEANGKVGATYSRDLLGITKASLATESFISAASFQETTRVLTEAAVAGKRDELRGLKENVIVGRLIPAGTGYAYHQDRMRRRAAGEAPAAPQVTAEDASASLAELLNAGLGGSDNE
Chain of E. coli RNA polymerase σ70 holoenzyme (P0A7Z4 whole entry partner, the tested form may be a part): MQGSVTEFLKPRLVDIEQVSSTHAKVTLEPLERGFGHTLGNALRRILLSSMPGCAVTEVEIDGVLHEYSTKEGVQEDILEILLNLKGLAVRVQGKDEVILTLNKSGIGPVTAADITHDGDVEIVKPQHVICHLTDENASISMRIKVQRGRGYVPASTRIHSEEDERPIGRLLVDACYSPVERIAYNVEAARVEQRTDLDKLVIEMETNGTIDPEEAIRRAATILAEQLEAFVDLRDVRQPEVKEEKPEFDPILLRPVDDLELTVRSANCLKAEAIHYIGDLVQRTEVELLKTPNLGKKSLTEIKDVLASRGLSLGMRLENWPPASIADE
Chain of E. coli RNA polymerase σ70 holoenzyme (P0A800 2-91 partner limits assumed): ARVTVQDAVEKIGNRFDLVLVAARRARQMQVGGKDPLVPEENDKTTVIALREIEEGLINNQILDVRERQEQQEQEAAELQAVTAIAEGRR
Chain of E. coli RNA polymerase σ70 holoenzyme (P00579 whole entry partner, the tested form may be a part): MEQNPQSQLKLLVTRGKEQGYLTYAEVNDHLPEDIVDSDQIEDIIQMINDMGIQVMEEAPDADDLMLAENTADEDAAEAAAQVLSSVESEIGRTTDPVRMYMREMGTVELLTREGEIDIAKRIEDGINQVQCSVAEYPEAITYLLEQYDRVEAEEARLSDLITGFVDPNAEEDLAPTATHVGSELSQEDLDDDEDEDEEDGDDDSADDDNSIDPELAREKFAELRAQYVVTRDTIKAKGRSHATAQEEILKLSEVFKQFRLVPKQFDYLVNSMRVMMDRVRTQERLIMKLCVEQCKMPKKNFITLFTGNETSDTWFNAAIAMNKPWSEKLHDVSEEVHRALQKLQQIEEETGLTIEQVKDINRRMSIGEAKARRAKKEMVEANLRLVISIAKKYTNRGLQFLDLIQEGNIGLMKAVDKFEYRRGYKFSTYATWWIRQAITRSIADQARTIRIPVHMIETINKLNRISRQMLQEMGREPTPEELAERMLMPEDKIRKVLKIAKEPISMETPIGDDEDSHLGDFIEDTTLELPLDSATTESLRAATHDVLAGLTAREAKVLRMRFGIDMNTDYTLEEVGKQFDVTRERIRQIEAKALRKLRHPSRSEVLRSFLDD
Experimental: Fluorescence-detected RNA polymerase assays with E. coli RNA polymerase were performed by a modification of the procedure of Kuhlman et al., 2004 [Kuhlman, P., Duff, H. & Galant, A. (2004) A fluorescence-based assay for multisubunit DNA-dependent RNA polymerases. Anal. Biochem. 324, 183-190]. Reaction mixtures contained (20 μl): 0-100 nM test compound, 75 nM E. coli RNA polymerase σ^70holoenzyme, 20 nM 384 bp DNA fragment containing the bacteriophage T4 N25 promoter, 100 μM ATP, 100 μM GTP, 100 μM UTP, 100 μM CTP, 50 mM Tris-HCl, pH 8.0, 100 mM KCl, 10 mM MgCl2, 1 mM DTT, 10 μg/ml bovine serum albumin, and 5.5% glycerol. Reaction components other than DNA and NTPs were pre-incubated for 10 min at 37° C. Reactions were carried out by addition of DNA and incubation for 5 min at 37° C., followed by addition of NTPs and incubation for 60 min at 37° C. DNA was removed by addition of 1 μl 5 mM CaCl2 and 2 U DNaseI (Ambion, Inc.), followed by incubation for 90 min at 37° C. RNA was quantified by addition of 100 μl RiboGreen RNA Quantitation Reagent (Invitrogen, Inc.; 1:500 dilution in Tris-HCl, pH 8.0, 1 mM EDTA), followed by incubation for 10 min at 25° C., followed by measurement of fluorescence intensity [excitation wavelength=485 nm and emission wavelength=535 nm; QuantaMaster QM1 spectrofluorometer (PTI, Inc.)]. IC50 is defined as the concentration of inhibitor resulting in 50% inhibition of RNA polymerase activity.

[4] = In vivo pharmacokinetics in mice (intravenous administration); details: CD-1 mice, 2.5 mg/kg
Experimental: Test compounds (2.5 mg/kg; 0.1 ml of 0.625 mg/ml solution in 5% dimethylacetamide and 4% Cremophor EL in 100 mM sodium phosphate, pH 7.4) were administered to mice (CD-1; […]; n=3) by intravenous injection into a tail vein at t=0 h. Blood samples were collected by tail-vein bleed (CB 300 K2E tubes; Sarstedt) at t=0.02, 0.05, 1, 3, 5, and 8 h, and plasma concentrations of test compounds were determined by LC-MS/MS.

[5] = tested on: Mycobacterium tuberculosis H37Rv; assay: Inhibition of growth of Mycobacterium tuberculosis (microplate Alamar Blue assay); assay type: cell-based; details: read-out: in vitro antibacterial activity M. tuberculosis H37Rv MIC
[6] = tested on: Staphylococcus aureus ATCC 12600; assay: Inhibition of growth of Staphylococcus aureus (spiral gradient endpoint assay); assay type: cell-based; details: read-out: in vitro antibacterial activity S. aureus ATCC 12600 MIC
Description: Minimum inhibitory concentrations (MICs) for Staphylococcus aureus ATCC 12600 were quantified using spiral gradient endpoint assays, essentially as described [Wallace, A. and Corkill, J. (1989) Application of the spiral plating method to study antimicrobial action. J. Microbiol. Meths. 10, 303-310; Paton, J., Holt, A., and Bywater, M. (1990) Measurement of MICs of antibacterial agents by spiral gradient endpoint compared with conventional dilution methods. Int. J. Exp. Clin. Chemother. 3, 31-38; Schalkowsky S. (1994) Measures of susceptibility from a spiral gradient of drug concentrations. Adv. Exp. Med. Biol. 349, 107-120]. Assays employed exponential-gradient plates containing 150 mm×4 mm Mueller-Hinton II cation-adjusted agar and 0.4-100 μg/ml of test compound. Plates were prepared using an Autoplate 4000 spiral plater (Spiral Biotech, Inc.). Saturated overnight cultures were swabbed radially onto plates, and plates were incubated for 16 h at 37° C. For each culture, the streak length was measured using a clear plastic template (Spiral Biotech, Inc.), the test-compound concentration at the streak endpoint was calculated using the program SGE (Spiral Biotech, Inc.), and the MIC was defined as the calculated test-compound concentration at the streak endpoint.

[7] = 75 nM E. coli RNAP holoenzyme, RiboGreen fluorescence, read-out: in vitro RNAP-inhibitory activity E. coli RNAP IC50
[8] = ATCC12600, spiral gradient endpoint assay, 16 h at 37° C.

Row | Structure (SMILES) | human liver microsome t0.5 [1] [min] | mouse liver microsome t0.5 [2] [min] | IC50 [3, 7] [nM] | plasma t0.5 [4] [h] | MIC [5] [µg/mL] | MIC [6, 8] [µg/mL] | MIC ([6]; ATCC12600, 16 h) [µg/mL] | IC50 [3] [nM]
1 | CCCC/C(C)=C/C=C(\C)C(=O)c1c(O)cc(C(C)CC/C=C/NC(=O)OC)oc1=O (racemic) [Example 10, (±)Myxopyronin B, reference compound] | 1.7 | 21 | 13 |  |  |  |  | 
2 | COC(=O)N/C=C/CCC(C)c1cc(O)c(C(=O)/C(C)=C/c2sc(Oc3ccc(F)cc3)nc2C)c(=O)o1 (centres unmarked) [Example 1] | 8.3 | 21 | 5.6 | 2.7 | 3.12 (≈ 5.76 µM) | 0.35 (≈ 0.645 µM) |  | 
3 | COC(=O)N/C=C/CCC(C)c1cc(O)c(C(=O)/C(C)=C/c2cnc(Oc3ccc(F)cc3)s2)c(=O)o1 (centres unmarked) [Example 2] | 14 | 60 | 9.6 | 2.8 | 3.12 (≈ 5.91 µM) | 0.5 (≈ 0.946 µM) |  | 
4 | COC(=O)N/C=C/CCCc1cc(O)c(C(=O)/C(C)=C/c2sc(Oc3ccc(F)cc3)nc2C)c(=O)o1 [Example 3] | 5.6 | 110 | 4.5 | 2.5 | 1.56 (≈ 2.95 µM) | 0.17 (≈ 0.322 µM) |  | 
5 | [2H]C([2H])([2H])OC(=O)N/C=C/CCC(C)c1cc(O)c(C(=O)/C(C)=C/c2sc(Oc3ccc(F)cc3)nc2C)c(=O)o1 (centres unmarked) [Example 4] | 16 | 59 | 6.8 | 2.7 |  | 0.24 (≈ 0.44 µM) |  | 
6 | [2H]C([2H])([2H])OC(=O)N/C=C/CCC(C)c1cc(O)c(C(=O)/C(C)=C/c2cnc(Oc3ccc(F)cc3)s2)c(=O)o1 (centres unmarked) [Example 5] | 21 | >120 | 5.3 | 3.0 | 1.56 (≈ 2.93 µM) | 0.3 (≈ 0.564 µM) |  | 
7 | COC(=O)N/C=C/CCCc1cc(O)c(C(=O)/C(C)=C/c2cnc(Oc3ccc(F)cc3)s2)c(=O)o1 [Example 6] | 8.6 | >120 | 8.4 | 2.4 | 0.78 (≈ 1.52 µM) | 0.73 (≈ 1.42 µM) |  | 
8 | [2H]C([2H])([2H])OC(=O)N/C=C/CCCc1cc(O)c(C(=O)/C(C)=C/c2sc(Oc3ccc(F)cc3)nc2C)c(=O)o1 [Example 7] | 8.3 | >120 | 2 | 2.6 | 0.78 (≈ 1.47 µM) | 0.19 (≈ 0.357 µM) |  | 
9 | [2H]C([2H])([2H])OC(=O)N/C=C/CCCc1cc(O)c(C(=O)/C(C)=C/c2cnc(Oc3ccc(F)cc3)s2)c(=O)o1 [Example 8] | 21 | >120 | 3 | 2.7 | 0.78 (≈ 1.51 µM) | 0.25 (≈ 0.483 µM) |  | 
10 | [2H]C([2H])([2H])OC(=O)N/C=C/CCCc1cc([O-])c(C(=O)/C(C)=C/c2cnc(Oc3ccc(F)cc3)s2)c(=O)o1.[Na+] [Example 9] | 29 | >120 |  | 3.9 | 0.39 |  | 0.41 | 3
11 | COC(=O)N/C=C/CCC(C)c1cc(O)c(C(=O)/C(C)=C/C=C(\C)CCC(F)(F)F)c(=O)o1 (centres unmarked) [Example 11, reference compound] | 25 | 100 | 12 |  |  |  |  | 
12 | [2H]C([2H])([2H])OC(=O)N/C=C/CCC(C)c1cc(O)c(C(=O)/C(C)=C/C=C(\C)CCCC)c(=O)o1 (centres unmarked) [Example 12] | 4.2 | 66 |  |  |  |  |  | 
13 | [2H]C([2H])([2H])OC(=O)N/C=C/CCC(C)c1cc(O)c(C(=O)/C(C)=C/C=C(\C)CCC(F)(F)F)c(=O)o1 (centres unmarked) [Example 13] | 33 | >120 | 23 |  |  |  |  | 
14 | [2H]C([2H])([2H])OC(=O)N/C=C/CCCc1cc(O)c(C(=O)/C(C)=C/c2cnc(Oc3ccc(F)c(Cl)c3)s2)c(=O)o1 [Example 14] | 21 | 65 | 2.9 | 1.8 | 0.78 (≈ 1.41 µM) | 0.19 (≈ 0.344 µM) |  | 
15 | [2H]C([2H])([2H])OC(=O)N/C=C/CCCc1cc([O-])c(C(=O)/C(C)=C/c2cnc(Oc3ccc(F)c(Cl)c3)s2)c(=O)o1.[Na+] [Example 15] |  |  |  |  | 0.78 |  | 0.17 | 2.9
16 | [2H]C([2H])([2H])OC(=O)N/C=C/CCCc1cc(O)c(C(=O)/C(C)=C/c2cnc(Oc3ccc(-c4ccccc4)cc3)s2)c(=O)o1 [Example 16] | 44 | 46 | 18 |  | > 50 | > 8 |  | 
17 | [2H]C([2H])([2H])OC(=O)N/C=C/CCCc1cc([O-])c(C(=O)/C(C)=C/c2cnc(Oc3ccc(-c4ccccc4)cc3)s2)c(=O)o1.[Na+] [Example 17] |  |  |  |  | > 50 |  |  | 49
18 | [2H]C([2H])([2H])OC(=O)N/C=C/CCCc1cc(O)c(C(=O)/C(C)=C/c2cnc(Oc3ccc(F)c(Br)c3)s2)c(=O)o1 [Example 18] |  |  | 1.6 |  | 0.78 (≈ 1.31 µM) | 0.35 (≈ 0.587 µM) |  | 
19 | [2H]C([2H])([2H])OC(=O)N/C=C/CCCc1cc(O)c(C(=O)/C(C)=C/c2cnc(Oc3ccc(F)c(-c4ccccc4)c3)s2)c(=O)o1 [Example 19] |  |  | 1.2 |  | 25 (≈ 42.1 µM) | 0.93 (≈ 1.57 µM) |  | 
20 | [2H]C([2H])([2H])OC(=O)N/C=C/CCCc1cc(O)c(C(=O)/C(C)=C/c2cnc(Oc3ccc(F)c(F)c3)s2)c(=O)o1 [Example 20] |  |  | 3 |  | 0.78 (≈ 1.46 µM) | 0.26 (≈ 0.485 µM) |  | 
